Patent US10722516B2, “Use of landiolol hydrochloride in the long-term treatment of tachyarrhythmias” (AOP Orphan Pharmaceuticals AG, priority 2013, dated 2020)
Structures can show the parent of a compound that is named as a salt.

Columns and labels:
healthy volunteers [1] = experiment: 24 h long-term infusion study: local tolerability and safety; type: in vivo, human; settings: 24 h infusion
Method: (§1) A single centre prospective, randomized, double blind, crossover, pharmacokinetic, safety and tolerability study to compare long-term infusion administration of AOP LDLL600 against esmolol in healthy volunteers was performed.
(§2) Landiolol hydrochloride lyophilized (LDLL600) comprises 600 mg landiolol hydrochloride, 600 mg mannitol, pH 6.5. The primary packing of LDLL600 is 50 ml vial, the reconstitution volume is 50 ml and the final product concentration is 12 mg/mL landiolol HCl.
(§3) 12 subjects were administered AOP LDLL600 or Esmolol (Brevibloc, 2500 mg/250 ml) in 1:1 ratio in double-blind, randomized, cross-over setting. PK, systemic cardiovascular and local tolerability and safety of the 24 h-long term infusions of three dose levels of both IMPs during each treatment period were assessed.
(§4) Landiolol was infused over 24 h in a dose of 10 μg/KG/min (2 hrs), followed by 20 μg/KG/min (2 hrs), followed by 40 μg/KG/min for 20 hrs.
(§5) Dosing algorithm was body weight divided by 20, 10 and 5 in ml/h giving 10, 20 and 40 μg/KG/min at a concentration of 12 mg/ml. No severe adverse drug reactions, mild local reactions, 1 severe local reaction (Esmolol High Dose).
(§6) Landiolol was infused over 24 h in a dose of 10, 20 and 40 μg/KG/min, i.e. 10 μg/KG/min landiolol were administered for 2 hrs, followed by 2 hrs administration of 20 μg/KG/min and further followed by 20 hrs administration of 40 μg/KG/min.

[2] = target: adrenergic β1 adrenoreceptor (Homo sapiens, UniProt P08588); settings: bolus followed by a continuous infusion; cited from earlier work
[3] = after discontinuing the drug; cited from earlier work
healthy volunteers [4] = experiment: 24 h long-term infusion study, AOP LDLL600 against esmolol: heart rate; type: in vivo, human
Method: as §1, §2, §3, §4, §5, §6
Post-infusion follow up measurements were performed immediately after 20 hrs administration study, i.e. 2, 4 min etc. after stop of landiolol administration.

[5] = FU Predose (end of 20 h HD, infusion stop)
[6] = FU post-infusion, 20 h 2 min (2 min after infusion stop)
[7] = FU post-infusion, 20 h 4 min (4 min after infusion stop)
[8] = FU post-infusion, 20 h 6 min (6 min after infusion stop)
[9] = FU post-infusion, 20 h 8 min (8 min after infusion stop)
[10] = FU post-infusion, 20 h 12 min (12 min after infusion stop)
[11] = FU post-infusion, 20 h 16 min (16 min after infusion stop)
[12] = FU post-infusion, 20 h 20 min (20 min after infusion stop)
[13] = FU post-infusion, 20 h 30 min (30 min after infusion stop)
[14] = FU post-infusion, 21 h (1 h after infusion stop)
[15] = FU post-infusion, 22 h (2 h after infusion stop)
[16] = FU post-infusion, 24 h (4 h after infusion stop)
[17] = FU post-infusion, 26 h (6 h after infusion stop)
[18] = HD infusion (landiolol 40, esmolol 200 μg/kg/min, after LD and MD), 2 min
[19] = HD infusion (landiolol 40, esmolol 200 μg/kg/min, after LD and MD), 3 min
[20] = HD infusion (landiolol 40, esmolol 200 μg/kg/min, after LD and MD), 4 min
[21] = HD infusion (landiolol 40, esmolol 200 μg/kg/min, after LD and MD), 6 min
[22] = HD infusion (landiolol 40, esmolol 200 μg/kg/min, after LD and MD), 8 min
[23] = HD infusion (landiolol 40, esmolol 200 μg/kg/min, after LD and MD), 12 min
[24] = HD infusion (landiolol 40, esmolol 200 μg/kg/min, after LD and MD), 16 min
[25] = HD infusion (landiolol 40, esmolol 200 μg/kg/min, after LD and MD), 20 min
[26] = HD infusion (landiolol 40, esmolol 200 μg/kg/min, after LD and MD), 30 min
[27] = HD infusion (landiolol 40, esmolol 200 μg/kg/min, after LD and MD), 60 min
[28] = HD infusion (landiolol 40, esmolol 200 μg/kg/min, after LD and MD), 90 min
[29] = HD infusion (landiolol 40, esmolol 200 μg/kg/min, after LD and MD), 2 h
[30] = HD infusion (landiolol 40, esmolol 200 μg/kg/min, after LD and MD), 4 h
[31] = HD infusion (landiolol 40, esmolol 200 μg/kg/min, after LD and MD), 8 h
[32] = HD infusion (landiolol 40, esmolol 200 μg/kg/min, after LD and MD), 12 h
[33] = HD infusion (landiolol 40, esmolol 200 μg/kg/min, after LD and MD), 16 h
[34] = HD infusion (landiolol 40, esmolol 200 μg/kg/min, after LD and MD), 20 h (end)

Chain of adrenergic β1 adrenoreceptor (P08588 whole entry, the tested form may be a part): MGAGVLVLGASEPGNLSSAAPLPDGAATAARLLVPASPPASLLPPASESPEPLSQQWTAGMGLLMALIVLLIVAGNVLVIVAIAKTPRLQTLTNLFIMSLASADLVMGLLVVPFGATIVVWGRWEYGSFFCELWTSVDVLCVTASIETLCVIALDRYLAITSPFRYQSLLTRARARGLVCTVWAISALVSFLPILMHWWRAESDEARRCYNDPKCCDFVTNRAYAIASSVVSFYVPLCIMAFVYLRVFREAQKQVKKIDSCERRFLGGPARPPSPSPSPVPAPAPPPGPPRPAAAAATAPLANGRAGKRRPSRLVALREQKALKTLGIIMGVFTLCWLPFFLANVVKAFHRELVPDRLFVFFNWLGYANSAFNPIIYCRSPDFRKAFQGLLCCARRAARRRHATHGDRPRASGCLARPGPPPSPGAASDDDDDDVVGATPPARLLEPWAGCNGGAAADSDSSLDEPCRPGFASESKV

## COC(=O)CCc1ccc(OCC(O)CNC(C)C)cc1 (stereo not drawn) [Esmolol, Esmolol hydrochloride]
Healthy volunteers [1]; three dose levels
  local reactions (percent of subjects): 50.0%
  local reactions (subjects/total): 7/14
Healthy volunteers [1]; Esmolol High Dose (200 μg/kg/min)
  severe local reaction (number): 1
[2]
  onset of activity: ≤ 2 min
  time to 90% of steady-state beta-blockade: ≤ 5 min
[3]
  time to resolution of hypotension symptoms: ≤ 30 min
Healthy volunteers [4]; [5]
  change of heart rate from predose, Mean (SD): 1.5 (9.05) beats per minute
  heart rate, Mean (SD): 69.1 (6.40) beats per minute
Healthy volunteers [4]; [6]
  change of heart rate from predose, Mean (SD): 1.4 (7.57) beats per minute
  heart rate, Mean (SD): 69.0 (4.88) beats per minute
Healthy volunteers [4]; [7]
  change of heart rate from predose, Mean (SD): 3.6 (8.77) beats per minute
  heart rate, Mean (SD): 71.3 (7.04) beats per minute
Healthy volunteers [4]; [8]
  change of heart rate from predose, Mean (SD): 5.4 (8.11) beats per minute
  heart rate, Mean (SD): 73.1 (7.89) beats per minute
Healthy volunteers [4]; [9]
  change of heart rate from predose, Mean (SD): 5.4 (8.10) beats per minute
  heart rate, Mean (SD): 73.1 (7.57) beats per minute
Healthy volunteers [4]; [10]
  change of heart rate from predose, Mean (SD): 7.1 (8.43) beats per minute
  heart rate, Mean (SD): 74.7 (8.62) beats per minute
Healthy volunteers [4]; [11]
  change of heart rate from predose, Mean (SD): 6.4 (7.44) beats per minute
  heart rate, Mean (SD): 74.0 (7.99) beats per minute
Healthy volunteers [4]; [12]
  change of heart rate from predose, Mean (SD): 6.8 (7.17) beats per minute
  heart rate, Mean (SD): 74.4 (7.04) beats per minute
Healthy volunteers [4]; [13]
  change of heart rate from predose, Mean (SD): 9.1 (8.04) beats per minute
  heart rate, Mean (SD): 76.8 (8.51) beats per minute
Healthy volunteers [4]; [14]
  change of heart rate from predose, Mean (SD): 5.5 (8.15) beats per minute
  heart rate, Mean (SD): 73.1 (7.50) beats per minute
Healthy volunteers [4]; [15]
  change of heart rate from predose, Mean (SD): 2.6 (8.02) beats per minute
  heart rate, Mean (SD): 70.2 (7.06) beats per minute
Healthy volunteers [4]; [16]
  change of heart rate from predose, Mean (SD): 4.5 (9.51) beats per minute
  heart rate, Mean (SD): 72.1 (7.37) beats per minute
Healthy volunteers [4]; [17]
  change of heart rate from predose, Mean (SD): 5.1 (10.85) beats per minute
  heart rate, Mean (SD): 72.8 (9.74) beats per minute
Healthy volunteers [4]; HD Predose (end of 2 h MD)
  change of heart rate from predose, Mean (SD): −3.9 (7.75) beats per minute
  heart rate, Mean (SD): 63.7 (4.86) beats per minute
Healthy volunteers [4]; [18]
  change of heart rate from predose, Mean (SD): −2.5 (8.96) beats per minute
  heart rate, Mean (SD): 65.1 (7.10) beats per minute
Healthy volunteers [4]; [19]
  change of heart rate from predose, Mean (SD): −3.2 (8.99) beats per minute
  heart rate, Mean (SD): 64.4 (4.38) beats per minute
Healthy volunteers [4]; [20]
  change of heart rate from predose, Mean (SD): −3.1 (8.16) beats per minute
  heart rate, Mean (SD): 64.5 (4.74) beats per minute
Healthy volunteers [4]; [21]
  change of heart rate from predose, Mean (SD): −2.8 (8.97) beats per minute
  heart rate, Mean (SD): 64.9 (4.29) beats per minute
Healthy volunteers [4]; [22]
  change of heart rate from predose, Mean (SD): −3.7 (10.45) beats per minute
  heart rate, Mean (SD): 63.9 (7.14) beats per minute
Healthy volunteers [4]; [23]
  change of heart rate from predose, Mean (SD): −2.9 (9.19) beats per minute
  heart rate, Mean (SD): 64.8 (4.39) beats per minute
Healthy volunteers [4]; [24]
  change of heart rate from predose, Mean (SD): −3.3 (8.32) beats per minute
  heart rate, Mean (SD): 64.4 (7.16) beats per minute
Healthy volunteers [4]; [25]
  change of heart rate from predose, Mean (SD): −0.4 (11.69) beats per minute
  heart rate, Mean (SD): 67.3 (7.26) beats per minute
Healthy volunteers [4]; [26]
  change of heart rate from predose, Mean (SD): −2.3 (9.26) beats per minute
  heart rate, Mean (SD): 65.4 (5.69) beats per minute
Healthy volunteers [4]; [27]
  change of heart rate from predose, Mean (SD): 4.9 (9.60) beats per minute
  heart rate, Mean (SD): 72.6 (6.64) beats per minute
Healthy volunteers [4]; [28]
  change of heart rate from predose, Mean (SD): 5.9 (8.95) beats per minute
  heart rate, Mean (SD): 73.6 (4.57) beats per minute
Healthy volunteers [4]; [29]
  change of heart rate from predose, Mean (SD): 6.2 (9.32) beats per minute
  heart rate, Mean (SD): 73.9 (4.55) beats per minute
Healthy volunteers [4]; [30]
  change of heart rate from predose, Mean (SD): 2.8 (9.60) beats per minute
  heart rate, Mean (SD): 70.4 (5.03) beats per minute
Healthy volunteers [4]; [31]
  change of heart rate from predose, Mean (SD): 0.3 (10.34) beats per minute
  heart rate, Mean (SD): 67.9 (5.95) beats per minute
Healthy volunteers [4]; [32]
  change of heart rate from predose, Mean (SD): 0.7 (10.94) beats per minute
  heart rate, Mean (SD): 68.4 (8.30) beats per minute
Healthy volunteers [4]; [33]
  change of heart rate from predose, Mean (SD): 0.3 (9.27) beats per minute
  heart rate, Mean (SD): 67.9 (7.49) beats per minute
Healthy volunteers [4]; [34]
  change of heart rate from predose, Mean (SD): 1.5 (9.05) beats per minute
  heart rate, Mean (SD): 69.1 (6.40) beats per minute
Healthy volunteers [4]; LD infusion (landiolol 10, esmolol 50 μg/kg/min), 2 min
  change of heart rate from predose, Mean (SD): −0.7 (6.22) beats per minute
